This note sets out measurements from patent publication US10464922B2, “Metalloenzyme inhibitor compounds” (NQP 1598 LTD., priority 2015, dated 2019).

By MIC is commonly meant the smallest concentration in the dilution series that meets the test's criterion for growth inhibition. The term IC50 denotes the concentration at which inhibition is half-maximal.

Experiment [1] has as its system A. fumigatus. Put plainly: A. fumigatus MIC at 100% growth inhibition (CLSI M38-A2). To be noted: 100% growth inhibition, range tested 8-0.0078 μg/mL, values given as ranges; for MIC: Aspergillus fumigatus, read-out: Aspergillus fumigatus MIC. The class given is cell-based, Aspergillus fumigatus. As for the experimental part:
A. fumigatus MICs were determined at 100% growth inhibition following CLSI guidelines at a concentration range of 8-0.0078 μg/mL (CLSI M38-A2).

Experiment [2] relates to Hedgehog signaling pathway Gli Reporter-NIH3T3 cells. Nature of the experiment: Gli luciferase reporter assay, Hedgehog signalling pathway activity. The class given is cell-based. To be noted: mShh 1 μg/ml, 27 hours. The method, then:
Hedgehog signaling pathway Gli Reporter-NIH3T3 cells were cultured in DMEM medium with 10% Calf serum, 1% Penn-strep, 500 μg/ml of Geneticin.
To perform the Gli luciferase reporter assay, Gli Reporter—NIH3T3 cells were seeded at 25,000 cells per well into white clear-bottom 96-well microplate in 100 μl of growth medium. Cells were incubated at 37° C., and 5% CO2 for overnight. The next day, remove the medium from wells and add 45 μl of diluted inhibitor in assay medium (Opti-MEM Reduced Serum Medium+0.5% calf serum+1% non-essential amino acids+1 mM Na-pyruvate+10 mM HEPES+1% Pen/Strep) per well. Incubate cells at 37° C. in a CO2 incubator for 2 hours. Then add 5 μl of diluted mShh in assay medium to wells (final [mShh]=1 μg/ml). Add 50 μl of assay medium to cell-free control wells. Cells were treated for 27 hours. After treatment, cells were lysed and luciferase assay was performed using ONE-Step luciferase assay system: add 50 μl of One-Step Luciferase reagent per well and rock at room temperature for ˜30 minutes. Luminescence was measured using a luminometer (BioTek Synergy™ 2 microplate reader). Compounds of the present invention are active in blockade of hedgehog signalling.

Experiment [3] relates to C. albicans (ATCC 90028). Nature of the experiment: Minimum inhibitory concentration, in vitro broth microdilution assay (CLSI M27-A2). In kind it is cell-based, Candida albicans. To be noted: ATCC 90028, about 50% growth reduction, 2 days at 36° C., range tested 8-0.0078 μg/mL, values given as ranges; for MIC: Candida albicans, ATCC90028, 48 h, read-out: Candida albicans MIC. The method, boiled down:
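CLSI M27-A2 broth microdilution: 11 two-fold DMSO dilutions into RPMI-1640+MOPS with 1×10^3–1×10^4 CFU/mL, 2 percent DMSO final. Incubated 2 days at 36° C; MIC from visual growth scoring, duplicates.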
(In general: In broth dilution the organism is exposed to a series of concentrations in liquid medium.)

≈ marks a conversion by molar mass, not a printed value. Some results are limits rather than exact numbers.

For the molecule `CC[C@@H]([C@H](C)O)n1ncn(-c2ccc(N3CCN(c4ccc(-c5ccc(C(F)(F)C(O)(Cn6cccn6)c6cccc(Cl)c6)nc5)cc4)CC3)cc2)c1=O` (stereo partly drawn) [Example 126, 4-(4-(4-(4-(6-(2-(3-chlorophenyl)-1,1-difluoro-2-hydroxy-3-(1H-pyrazol-1-yl)propyl)pyridin-3-yl)phenyl)piperazin-1-yl)phenyl)-2-((2S,3S)-2-hydroxypentan-3-yl)-2,4-dihydro-3H-1,2,4-triazol-3-one], the values for the MIC in experiment [1] and in experiment [3] were greater than 8 µg/mL and 1 to 8 µg/mL (≈ 1.32 to 10.6 µM), respectively. Moreover, the IC50 in experiment [2] was 190 nM.
Taken in the same sequence, the figures for `CC[C@@H]([C@H](C)O)n1ncn(-c2ccc(N3CCN(c4ccc(-c5ccc(C(F)(F)[C@](O)(Cn6cnnn6)c6ccc(F)cc6F)nc5)cc4)CC3)cc2)c1=O` [Example 20, 4-(4-(4-(4-(6-((R)-2-(2,4-difluorophenyl)-1,1-difluoro-2-hydroxy-3-(1H-tetrazol-1-yl)propyl)pyridin-3-yl)phenyl)piperazin-1-yl)phenyl)-2-((2S,3S)-2-hydroxypentan-3-yl)-2,4-dihydro-3H-1,2,4-triazol-3-one] were 1 to 4 µg/mL (≈ 1.32 to 5.27 µM), 0.0078 to 0.01 µg/mL (≈ 0.0103 to 0.0132 µM) and 190 nM.
On to `CC[C@@H]([C@H](C)O)n1ncn(-c2ccc(N3CCN(c4ccc(-c5ccc(C(F)(F)C(O)(Cn6cnnn6)c6ccccc6F)nc5)cc4)CC3)cc2)c1=O` (stereo partly drawn) [38(−)], for which the “Aspergillus fumigatus MIC” value in experiment [1] is greater than 8 µg/mL. In addition, the IC50 in experiment [2] turned out to be 59 nM. For the same molecule, in experiment [3], the “Candida albicans MIC” value lay within 0.10 to 1.0 µg/mL.
On to `CC[C@@H]([C@H](C)O)n1ncn(-c2ccc(N3CCN(c4ccc(-c5ccc(C(F)(F)C(O)(Cn6cnc(C(F)(F)F)n6)c6ccccc6F)nc5)cc4)CC3)cc2)c1=O` (stereo partly drawn) [106(+)], for which the MIC in experiment [1] and in experiment [3] was greater than 8 µg/mL each time. In addition, the IC50 in experiment [2] was 310 nM.
Turning to `CC[C@@H]([C@H](C)O)n1ncn(-c2ccc(N3CCN(c4ccc(-c5ccc(C(F)(F)C(O)(Cn6nccn6)c6ccc(F)cc6F)nc5)cc4)CC3)cc2)c1=O` (stereo partly drawn) [Example 107, 4-(4-(4-(4-(6-(2-(2,4-difluorophenyl)-1,1-difluoro-2-hydroxy-3-(2H-1,2,3-triazol-2-yl)propyl)pyridin-3-yl)phenyl)piperazin-1-yl)phenyl)-2-((2S,3S)-2-hydroxypentan-3-yl)-2,4-dihydro-3H-1,2,4-triazol-3-one], the MIC in experiment [1] and in experiment [3] was greater than 8 µg/mL each time. The IC50 in experiment [2] was 270 nM.
As to `CC[C@@H]([C@H](C)O)n1ncn(-c2ccc(N3CCN(c4ccc(-c5ccc(C(F)(F)C(O)(Cn6ncnc6C)c6cccc(F)c6)nc5)cc4)CC3)cc2)c1=O` (single isomer, unassigned; (+)) [85(+)], the MIC in experiment [1] was greater than 8 µg/mL; in experiment [3] it was 0.1 to 1 µg/mL (≈ 0.133 to 1.33 µM). The IC50 in experiment [2] amounted to 253 nM.
For `N#Cc1ccc(N2CCN(c3ccc(-c4ccc(C(F)(F)[C@](O)(Cn5cnnn5)c5ccc(F)cc5F)nc4)cc3)CC2)nc1` [Example 12] the same measures were 0.25 to 1 µg/mL (≈ 0.406 to 1.62 µM), 0.0078 to 0.01 µg/mL (≈ 0.0127 to 0.0162 µM) and 400 nM.
Taken in the same sequence, the figures for `N#Cc1ccc(CN2CCN(c3ccc(-c4ccc(C(F)(F)[C@](O)(Cn5cnnn5)c5ccc(F)cc5F)nc4)cc3)CC2=O)cc1` [Example 28, (R)-4-((4-(4-(6-(2-(2,4-difluorophenyl)-1,1-difluoro-2-hydroxy-3-(1H-tetrazol-1-yl)propyl)pyridin-3-yl)phenyl)-2-oxopiperazin-1-yl)methyl)benzonitrile] were greater than 8 µg/mL, 0.0078 to 0.01 µg/mL (≈ 0.0121 to 0.0156 µM) and 580 nM.
Taken in the same sequence, the figures for `N#Cc1ccc(N2CCN(c3ccc(-c4ccc(C(F)(F)C(O)(Cn5cnnn5)C5CC5)nc4)cc3)CC2)cc1` (centres unmarked) [Example 36, 4-(4-(4-(6-(2-cyclopropyl-1,1-difluoro-2-hydroxy-3-(1H-tetrazol-1-yl)propyl)pyridin-3-yl)phenyl)piperazin-1-yl) benzonitrile] were greater than 8 µg/mL, 0.0078 to 0.01 µg/mL (≈ 0.0144 to 0.0184 µM) and 850 nM.
As to `CC[C@@H]([C@H](C)O)n1ncn(-c2ccc(N3CCN(c4ccc(-c5ccc(C(F)(F)C(O)(Cn6cnnn6)c6ccc(F)cc6)nc5)cc4)CC3)cc2)c1=O` (single isomer, unassigned; (+)) [63(+)], the MIC in experiment [1] lay in the range of 0.062 to 0.25 µg/mL (≈ 0.0837 to 0.337 µM); in experiment [3], 0.01 to 0.1 µg/mL (≈ 0.0135 to 0.135 µM). For the same molecule, the IC50 in experiment [2] was 150 nM.
Turning to `CC[C@@H]([C@H](C)O)n1ncn(-c2ccc(N3CCN(c4ccc(-c5ccc(C(F)(F)C(O)(Cn6cccn6)c6ccc(F)cc6F)nc5)cc4)CC3)cc2)c1=O` (stereo partly drawn) [Example 101, 4-(4-(4-(4-(6-(2-(2,4-difluorophenyl)-1,1-difluoro-2-hydroxy-3-(1H-pyrazol-1-yl)propyl)pyridin-3-yl)phenyl)piperazin-1-yl)phenyl)-2-((2S,3S)-2-hydroxypentan-3-yl)-2,4-dihydro-3H-1,2,4-triazol-3-one], the MIC was greater than 8 µg/mL in experiment [1] and 0.1 to 1 µg/mL (≈ 0.132 to 1.32 µM) in experiment [3]. Also, the 50% inhibitory concentration (IC50) in experiment [2] amounted to 217 nM.
Taken in the same sequence, the figures for `CC[C@@H]([C@H](C)O)n1ncn(-c2ccc(N3CCN(c4ccc(-c5ccc(C(F)(F)C(O)(Cn6cnnn6)c6cccc(Cl)c6)nc5)cc4)CC3)cc2)c1=O` (mixture of isomers) [Example 127, 4-(4-(4-(4-(6-(2-(3-chlorophenyl)-1,1-difluoro-2-hydroxy-3-(1H-tetrazol-1-yl)propyl)pyridin-3-yl)phenyl)piperazin-1-yl)phenyl)-2-((2S,3S)-2-hydroxypentan-3-yl)-2,4-dihydro-3H-1,2,4-triazol-3-one] were greater than 8 µg/mL, 0.1 to 1 µg/mL and 20 nM.
For `CC[C@@H]([C@H](C)O)n1ncn(-c2ccc(N3CCN(c4ccc(-c5ccc(C(F)(F)C(O)(Cn6nccn6)c6ccccc6F)nc5)cc4)CC3)cc2)c1=O` (stereo partly drawn) [Example 116, 4-(4-(4-(4-(6-(1,1-difluoro-2-(2-fluorophenyl)-2-hydroxy-3-(2H-1,2,3-triazol-2-yl)propyl)pyridin-3-yl)phenyl)piperazin-1-yl)phenyl)-2-((2S,3S)-2-hydroxypentan-3-yl)-2,4-dihydro-3H-1,2,4-triazol-3-one] the same measures were greater than 8 µg/mL, greater than 8 µg/mL and 160 nM.
Take `CC[C@@H]([C@H](C)O)n1ncn(-c2ccc(N3CCN(c4ccc(-c5ccc(C(F)(F)C(O)(Cn6cccn6)c6ccccc6F)nc5)cc4)CC3)cc2)c1=O` (some centres unmarked) [Example 117]: the MIC in experiment [1] and in experiment [3] was greater than 8 µg/mL throughout. The IC50 in experiment [2] came out at 92 nM.
For the molecule `CC[C@@H]([C@H](C)O)n1ncn(-c2ccc(N3CCN(c4ccc(-c5ccc(C(F)(F)C(O)(Cn6cnnn6)c6cccc(F)c6)nc5)cc4)CC3)cc2)c1=O` (single isomer, unassigned; (+)) [64(+)], the results for the MIC in experiment [1] and in experiment [3] were 0.25 to 1 µg/mL (≈ 0.337 to 1.35 µM) and 0.01 to 0.1 µg/mL (≈ 0.0135 to 0.135 µM), respectively. Further, the IC50 in experiment [2] stood at 160 nM.
Regarding `CC[C@@H]([C@H](C)O)n1ncn(-c2ccc(N3CCN(c4ccc(-c5ccc(C(F)(F)C(O)(Cn6cnnn6)c6ccccc6F)nc5)cc4)CC3)cc2)c1=O` (stereo partly drawn) [38(+)], the “Aspergillus fumigatus MIC” value in experiment [1] was 0.062 to 0.25 µg/mL. The IC50 in experiment [2] came out at 120 nM. Further, in experiment [3], the “Candida albicans MIC” value was no more than 0.0078 to 0.010 µg/mL.
Turning to `CC[C@@H]([C@H](C)O)n1ncn(-c2ccc(N3CCN(c4ccc(-c5ccc(C(F)(F)C(O)(Cn6cnnn6)c6ccccc6F)nc5)cc4)CC3)cc2)c1=O` (mixture of isomers) [Example 38], the IC50 in experiment [2] came out at 38 nM.
As to `CC[C@@H]([C@H](C)O)n1ncn(-c2ccc(N3CCN(c4ccc(-c5ccc(C(F)(F)C(O)(Cn6nccn6)c6cccc(Cl)c6)nc5)cc4)CC3)cc2)c1=O` (some centres unmarked) [Example 125], the MIC in experiment [1] and in experiment [3] was greater than 8 µg/mL throughout. Further, in experiment [2], the IC50 worked out at 92 nM.
On to `OC(c1ccc(N2CCN(c3ccc(-c4ccc(C(F)(F)[C@](O)(Cn5cnnn5)c5ccc(F)cc5F)nc4)cc3)CC2)cn1)C(F)(F)F` (stereo partly drawn) [Example 6, (2R)-2-(2,4-difluorophenyl)-1,1-difluoro-3-(1H-tetrazol-1-yl)-1-(5-(4-(4-(6-(2,2,2-trifluoro-1-hydroxyethyl)pyridin-3-yl)piperazin-1-yl)phenyl)pyridin-2-yl) propan-2-ol], for which, in experiment [1], the “Aspergillus fumigatus MIC” value lay in the range of 0.25 to 1.0 µg/mL. Besides, in experiment [3], the “Candida albicans MIC” value was no more than 0.0078 to 0.010 µg/mL.
Regarding `N#Cc1ccc(N2CCN(C(=O)c3ccc(-c4ccc(C(F)(F)[C@](O)(Cn5cnnn5)c5ccc(F)cc5F)nc4)cc3)CC2)cc1` [Example 19, (R)-4-(4-(4-(6-(2-(2,4-difluorophenyl)-1,1-difluoro-2-hydroxy-3-(1H-tetrazol-1-yl)propyl)pyridin-3-yl)benzoyl)piperazin-1-yl) benzonitrile], the figures for the minimal inhibitory concentration (MIC) in experiment [1] and in experiment [3] were greater than 8 µg/mL and 0.0078 to 0.01 µg/mL (≈ 0.0121 to 0.0156 µM), respectively.
